Experimental data: ChEMBL document CHEMBL1146503, “Effects of natural flavones and flavonols on the kinase activity of Cdk5” (J Nat Prod, 2004)

Target: Cyclin-dependent kinase 5 (Rattus norvegicus, UniProt Q03114)
Assay: Inhibition of rat fetal brain CDK5 assessed as phosphorylated histone H1 levels by immuno-precipitation
Type: tissue-based

Sequence of Cyclin-dependent kinase 5 (Q03114 whole entry): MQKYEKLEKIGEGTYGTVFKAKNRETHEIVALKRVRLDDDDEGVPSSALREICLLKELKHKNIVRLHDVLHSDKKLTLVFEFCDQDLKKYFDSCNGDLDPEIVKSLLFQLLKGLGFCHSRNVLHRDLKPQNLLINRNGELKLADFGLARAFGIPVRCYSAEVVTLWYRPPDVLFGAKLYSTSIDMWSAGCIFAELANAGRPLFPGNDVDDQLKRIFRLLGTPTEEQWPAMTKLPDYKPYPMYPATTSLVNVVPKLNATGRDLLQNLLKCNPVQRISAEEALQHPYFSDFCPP

| SMILES | EC50 [µM] |
| --- | --- |
| COc1cc2oc(-c3ccccc3)cc(=O)c2c(OC)c1O | > 250 |
| COc1cc(-c2oc3c(OC)c(OC)c(OC)c(O)c3c(=O)c2OC)ccc1O | > 25 |
| O=c1cc(-c2ccc(O)cc2)oc2cc(O)cc(O)c12 [APIGENIN] | > 250 |
| COc1c(O)cc2oc(-c3ccc(O)c(O)c3)cc(=O)c2c1O [EUPAFOLIN] | 40 |
| COc1c(O)cc2oc(-c3ccc(O)cc3)cc(=O)c2c1O [HISPIDULIN] | 19.1 |
| O=c1c(O)c(-c2ccc(O)cc2)oc2cc(O)cc(O)c12 [KAEMPFEROL] | 66.1 |
| O=c1cc(-c2ccc(O)c(O)c2)oc2cc(O)cc(O)c12 [LUTEOLIN] | > 250 |
| O=c1c(O)c(-c2cc(O)c(O)c(O)c2)oc2cc(O)cc(O)c12 [MYRICETIN] | 71.1 |
